Values quoted from earlier work as cited in patent US9555026B2, “Solid dispersion comprising amorphous cilostazol” (OTSUKA PHARMACEUTICAL CO., LTD., priority 2013, dated 2017).

Conditions: after meal versus fasting

Compound: O=C1CCc2cc(OCCCCc3nnnn3C3CCCCC3)ccc2N1 [cilostazol, 6-[4-(1-cyclohexyl-1H-tetrazol-5-yl)butoxy]-3,4-dihydrocarbostyril]
- AUC administered after meal, higher than that of fasting: 1.4 times
- Cmax administered after meal, higher than that of fasting: 2.3 times
